Measurements reported in patent US5395947A, “Platinum(II) complex and processes for preparing the same” (Sunkyong Industries, Ltd., priority 1991, dated 1995).
Blank lines part the entries; values can stand above or below the compound they belong to.

Legend:
[1] = system: murine leukemia L1210 cells; assay: Growth inhibition test on cultured murine leukemia L1210 cells; type: cell-based; details: 48 hours, 37° C., Trypan blue viability
Method: 1. Growth inhibition test on cultured murine leukemia L1210 cells
Murine leukemia L1210 cells(1×10^5) were treated with various concentrations of the compounds prepared in the above examples in RPMI 1640 medium supplemented with 10% fetal calf serum, and cultured in a 5% CO2 humidified incubator at 37° C. for 48 hours. Their viability, estimated by staining with 0.17% Trypan blue, was compared with that of control cells cultured in the identical medium without the compounds.

murine leukemia L1210 = assay: Antitumor activity test on murine leukemia L1210 in vivo; set-up: species or system male BDF1 mice; details: days 1, 5, 9
Method: 2. Antitumor activity test on murine leukemia L1210 in vivo
Murine leukemia L1210 cells were maintained in the peritoneal cavities of 6-week-old male DBA/2 mice by weekly transfer in accordance with the procedure described in cancer chemotherapy Reports, Part 3, 3(2), 7 (1972). Specifically, 1×10^6 leukemia cells were inoculated into the abdominal cavities of 6-week-old male BDF1 mice weighing 21±3 g on day 0. Each treatment group consisted of seven mice. The test compounds were dissolved or suspended in 0.5% carboxymethyl cellulose(CMC)solution (in water) and were administered intraperitoneally on days 1, 5, and 9 relative to the tumor inoculation.
Thirty mice of 6-week-old male BDF1 weighing 21±3 g were used as the control group, which were injected with 0.5% CMC solution only in the same manner as above.
Anti-tumor activities of the compounds were evaluated in terms of the T/C % values calculated from the mean survival time(T) of the compound-treated group over that(C) of the control group. [formula]

ICR mice = assay: Acute toxicity test; type: in vivo; set-up: Lethality: unit not given here; details: for Lethality: 10080 min
Method: 7-week-old ICR mice(male: 34±2 g; female: 31±2 g) were fed with solid food and water under the condition of 23±1° C. temperature and 65±5% humidity before the test.
Each treatment group consisted of 6 mice. The test compounds were administered intraperitoneally.
For 7 days after the administration, the appearance and the fate of the tested animals were recorded. The dead animals were subjected to autopsy and their visible pathological changes were observed. Their viscerals were stored in 10% formalin solution.

IC50 (concentration required for 50% inhibition of growth) [1]: 0.44 µg/mL
Compound: CC(C)C1OC2C[NH2+][Pt-2]3([NH2+]CC2O1)[O]C(=O)C(C)(C)C(=O)[O]3 [Example 41, cis-dimethylmalonato[(4R,5R)-4,5-bis(aminomethyl)-2-isopropyl-1,3-dioxolane]platinum(II)]
T/C (%) (murine leukemia L1210; 25 mg/kg i.p.): 123%
T/C (%) (murine leukemia L1210; 50 mg/kg i.p.): 174%
T/C (%) (murine leukemia L1210; 100 mg/kg i.p.): 204%

IC50 (concentration required for 50% inhibition of growth) [1]: 0.50 µg/mL
Compound: O=C1CC(=O)[O][Pt-2]2([NH2+]CC3OCOC3C[NH2+]2)[O]1 [Example 33, cis-malonato[(4R,5R)-4,5-bis(aminomethyl)-1,3-dioxolane]platinum(II)]
T/C (%) (murine leukemia L1210; 12.5 mg/kg i.p.): 146%
T/C (%) (murine leukemia L1210; 25 mg/kg i.p.): 133%
T/C (%) (murine leukemia L1210; 50 mg/kg i.p.): 276%

IC50 (concentration required for 50% inhibition of growth) [1]: 0.44 µg/mL
Compound: CCC1OC2C[NH2+][Pt-2]3([NH2+]CC2O1)[O]C(=O)CC(=O)[O]3 [Example 35, cis-malonato[(4R,5R)-4,5-bis(aminomethyl)-2-ethyl-1,3-dioxolane]platinum(II)]
T/C (%) (murine leukemia L1210; 12.5 mg/kg i.p.): 144%
T/C (%) (murine leukemia L1210; 25 mg/kg i.p.): 204%
T/C (%) (murine leukemia L1210; 50 mg/kg i.p.): 245%

Compound: CC(C)C1O[C@H](C[NH-])[C@@H](C[NH-])O1.O=C([O-])CC(=O)[O-].[Pt+4] (relative stereo) [Example 38, cis-malonato[(4R,5R)-4,5-bis(aminomethyl)-2-isopropyl-1,3-dioxolane]platinum(II)]
IC50 (concentration required for 50% inhibition of growth) [1]: 0.43 µg/mL
T/C (%) (murine leukemia L1210; 12.5 mg/kg i.p.): 123%
T/C (%) (murine leukemia L1210; 25 mg/kg i.p.): 148%
T/C (%) (murine leukemia L1210; 50 mg/kg i.p.): 220%

Compound: CC1OC(CN)C(CN)O1.CC1[O][Pt][O]C1=O [Example 17, (L-lactato-O,O')[(4R,5R)-4,5-bis(aminomethyl)-2-methyl-1,3-dioxolane]platinum(II)]
IC50 (concentration required for 50% inhibition of growth) [1]: 0.44 µg/mL
T/C (%) (murine leukemia L1210; 12.5 mg/kg i.p.): 201%
T/C (%) (murine leukemia L1210; 25 mg/kg i.p.): 327%
T/C (%) (murine leukemia L1210; 50 mg/kg i.p.): 139%

Compound: CCC1OC2C[NH2+][Pt-2]3([NH2+]CC2O1)[O]C(=O)C(C)(C)C(=O)[O]3 [Example 40, cis-dimethylmalonato[(4R,5R)-4,5-bis(aminomethyl)-2-ethyl-1,3-dioxolane]platinum(II)]
IC50 (concentration required for 50% inhibition of growth) [1]: 0.52 µg/mL
T/C (%) (murine leukemia L1210; 25 mg/kg i.p.): 213%
T/C (%) (murine leukemia L1210; 50 mg/kg i.p.): 165%
T/C (%) (murine leukemia L1210; 100 mg/kg i.p.): 248%

Compound: CC1[O][Pt][O]C1=O.CCC1OC(CN)C(CN)O1 [Example 18, (L-lactato-O,O')[(4R,5R)-4,5-bis(aminomethyl)-2-ethyl-1,3-dioxolane]platinum(II)]
IC50 (concentration required for 50% inhibition of growth) [1]: 0.32 µg/mL
T/C (%) (murine leukemia L1210; 12.5 mg/kg i.p.): 206%
T/C (%) (murine leukemia L1210; 25 mg/kg i.p.): 165%
T/C (%) (murine leukemia L1210; 50 mg/kg i.p.): toxic
Number of dead mice for 7 days (ICR mice; female, 41.3 mg/kg i.p.): 3/6
Number of dead mice, 1st day (ICR mice; female, 41.3 mg/kg i.p.): 0/6
Number of dead mice, 5th day (ICR mice; female, 41.3 mg/kg i.p.): 1/6
Number of dead mice, 6th day (ICR mice; female, 41.3 mg/kg i.p.): 2/5
Lethality (ICR mice; female, 41.3 mg/kg i.p.): 55.0
Number of dead mice for 7 days (ICR mice; female, 54.9 mg/kg i.p.): 4/6
Number of dead mice, 1st day (ICR mice; female, 54.9 mg/kg i.p.): 0/6
Number of dead mice, 3rd day (ICR mice; female, 54.9 mg/kg i.p.): 1/6
Number of dead mice, 4th day (ICR mice; female, 54.9 mg/kg i.p.): 2/5
Number of dead mice, 5th day (ICR mice; female, 54.9 mg/kg i.p.): 1/3
Lethality (ICR mice; female, 54.9 mg/kg i.p.): 66.7
Number of dead mice for 7 days (ICR mice; female, 71.4 mg/kg i.p.): 5/6
Number of dead mice, 1st day (ICR mice; female, 71.4 mg/kg i.p.): 0/6
Number of dead mice, 4th day (ICR mice; female, 71.4 mg/kg i.p.): 1/6
Number of dead mice, 5th day (ICR mice; female, 71.4 mg/kg i.p.): 3/5
Number of dead mice, 6th day (ICR mice; female, 71.4 mg/kg i.p.): 1/2
Lethality (ICR mice; female, 71.4 mg/kg i.p.): 83.3
Number of dead mice for 7 days (ICR mice; female, 91.8 mg/kg i.p.): 6/6
Number of dead mice, 1st day (ICR mice; female, 91.8 mg/kg i.p.): 1/6
Number of dead mice, 2nd day (ICR mice; female, 91.8 mg/kg i.p.): 1/6
Number of dead mice, 3rd day (ICR mice; female, 91.8 mg/kg i.p.): 2/5
Number of dead mice, 4th day (ICR mice; female, 91.8 mg/kg i.p.): 2/3
Number of dead mice, 5th day (ICR mice; female, 91.8 mg/kg i.p.): 1/1
Lethality (ICR mice; female, 91.8 mg/kg i.p.): 100.0
Number of dead mice for 7 days (ICR mice; male, 41.3 mg/kg i.p.): 4/6
Number of dead mice, 1st day (ICR mice; male, 41.3 mg/kg i.p.): 0/6
Number of dead mice, 4th day (ICR mice; male, 41.3 mg/kg i.p.): 1/6
Number of dead mice, 5th day (ICR mice; male, 41.3 mg/kg i.p.): 1/5
Number of dead mice, 6th day (ICR mice; male, 41.3 mg/kg i.p.): 2/4
Lethality (ICR mice; male, 41.3 mg/kg i.p.): 66.7
Number of dead mice for 7 days (ICR mice; male, 54.9 mg/kg i.p.): 4/6
Number of dead mice, 1st day (ICR mice; male, 54.9 mg/kg i.p.): 0/6
Number of dead mice, 2nd day (ICR mice; male, 54.9 mg/kg i.p.): 1/6
Number of dead mice, 3rd day (ICR mice; male, 54.9 mg/kg i.p.): 1/5
Number of dead mice, 4th day (ICR mice; male, 54.9 mg/kg i.p.): 1/4
Number of dead mice, 5th day (ICR mice; male, 54.9 mg/kg i.p.): 1/3
Lethality (ICR mice; male, 54.9 mg/kg i.p.): 66.7
Number of dead mice for 7 days (ICR mice; male, 71.4 mg/kg i.p.): 5/6
Number of dead mice, 1st day (ICR mice; male, 71.4 mg/kg i.p.): 0/6
Number of dead mice, 4th day (ICR mice; male, 71.4 mg/kg i.p.): 2/6
Number of dead mice, 5th day (ICR mice; male, 71.4 mg/kg i.p.): 2/4
Number of dead mice, 6th day (ICR mice; male, 71.4 mg/kg i.p.): 1/2
Lethality (ICR mice; male, 71.4 mg/kg i.p.): 83.3
Number of dead mice for 7 days (ICR mice; male, 91.8 mg/kg i.p.): 6/6
Number of dead mice, 1st day (ICR mice; male, 91.8 mg/kg i.p.): 0/6
Number of dead mice, 2nd day (ICR mice; male, 91.8 mg/kg i.p.): 3/6
Number of dead mice, 4th day (ICR mice; male, 91.8 mg/kg i.p.): 1/3
Number of dead mice, 5th day (ICR mice; male, 91.8 mg/kg i.p.): 1/2
Number of dead mice, 6th day (ICR mice; male, 91.8 mg/kg i.p.): 1/1
Lethality (ICR mice; male, 91.8 mg/kg i.p.): 100.0

Compound: CC1(C)OC(CN)C(CN)O1.CC1[O][Pt][O]C1=O [Example 14, (L-lactato-O,O')[(4R,5R)-4,5-bis(aminomethyl)-2,2-dimethyl-1,3-dioxolane]platinum(II)]
IC50 (concentration required for 50% inhibition of growth) [1]: 0.46 µg/mL
T/C (%) (murine leukemia L1210; 12.5 mg/kg i.p.): 213%
T/C (%) (murine leukemia L1210; 25 mg/kg i.p.): toxic
T/C (%) (murine leukemia L1210; 50 mg/kg i.p.): toxic
